Where a name gives a salt, the structure may show the parent alone. Read-outs that look alike come from different tables or passages of the source.

Fold induction data for nine compounds are collected here from patent US10004701B2, “Methods and compositions for treating infection” (UNIVERSITY OF ROCHESTER, priority 2012, dated 2018).

Holding throughout (assay): AK assay 384-well format, Prestwick library screening
For assay [1], the system named is S. aureus strain USA300-0114. The class given is cell-based, Staphylococcus aureus. To be noted: Staphylococcus aureus, USA300, 3 h, 50 μM final drug concentration.
The subject of assay [2] is E. faecium. Format: cell-based, Enterococcus faecium. To be noted: Enterococcus faecium, 3 h, 50 μM final drug concentration.
The test system of assay [3] is P. aeruginosa. Format: cell-based, Pseudomonas aeruginosa. To be noted: Pseudomonas aeruginosa, 3 h, 50 μM final drug concentration.
Assay [4] concerns E. cloacae. The class given is cell-based, Enterobacter cloacae. Particulars: Enterobacter cloacae, 3 h, 50 μM final drug concentration.
In assay [5] the test system is A. baumannii strain 98-37-09. The class given is cell-based, Acinetobacter baumannii. To be noted: Acinetobacter baumannii, 983709, 3 h, 50 μM final drug concentration.
Assay [6] deals with E. coli. Format: cell-based, Escherichia coli. Particulars: Escherichia coli, 3 h, 50 μM final drug concentration.
The test system of assay [7] is K. pneumoniae. The class given is cell-based, Klebsiella pneumoniae. Particulars: Klebsiella pneumoniae, 3 h, 50 μM final drug concentration.
Setting [8] is: planktonic S. aureus, cutoff for positive-scoring molecules 3-fold increase, read-out: AK-based Prestwick Library Screening Results, S. aureus (increase in extracellular AK activity).
Setting [9] is: planktonic E. faecium, cutoff for positive-scoring molecules 3-fold increase, read-out: AK-based Prestwick Library Screening Results, E. faecium (increase in extracellular AK activity).
[10] abbreviates: planktonic P. aeruginosa, cutoff for positive-scoring molecules 3-fold increase, read-out: AK-based Prestwick Library Screening Results, P. aeruginosa (increase in extracellular AK activity).
Where [11] appears, read: planktonic E. cloacae, cutoff for positive-scoring molecules 3-fold increase, read-out: AK-based Prestwick Library Screening Results, E. cloacae (increase in extracellular AK activity).
[12] abbreviates: planktonic A. baumannii, cutoff for positive-scoring molecules 3-fold increase, read-out: AK-based Prestwick Library Screening Results, A. baumannii (increase in extracellular AK activity).
[13] abbreviates: planktonic E. coli, cutoff for positive-scoring molecules 3-fold increase, read-out: AK-based Prestwick Library Screening Results, E. coli (increase in extracellular AK activity).
Where [14] appears, read: planktonic K. pneumoniae, cutoff for positive-scoring molecules 3-fold increase, read-out: AK-based Prestwick Library Screening Results, K. pneumoniae (increase in extracellular AK activity).
The mark [15] stands for this setting: planktonic S. aureus, positive cutoff 3-fold increase, read-out: AK-based Prestwick library screening result, S. aureus (fold increase in extracellular AK activity).
The mark [16] stands for this setting: planktonic E. faecium, positive cutoff 3-fold increase, read-out: AK-based Prestwick library screening result, E. faecium (fold increase in extracellular AK activity).
[17] abbreviates: planktonic P. aeruginosa, positive cutoff 3-fold increase, read-out: AK-based Prestwick library screening result, P. aeruginosa (fold increase in extracellular AK activity).
Setting [18] is: planktonic E. cloacae, positive cutoff 3-fold increase, read-out: AK-based Prestwick library screening result, E. cloacae (fold increase in extracellular AK activity).
The mark [19] stands for this setting: planktonic A. baumannii, positive cutoff 3-fold increase, read-out: AK-based Prestwick library screening result, A. baumannii (fold increase in extracellular AK activity).
Where [20] appears, read: planktonic E. coli, positive cutoff 3-fold increase, read-out: AK-based Prestwick library screening result, E. coli (fold increase in extracellular AK activity).
Where [21] appears, read: planktonic K. pneumoniae, positive cutoff 3-fold increase, read-out: AK-based Prestwick library screening result, K. pneumoniae (fold increase in extracellular AK activity).
Where [22] appears, read: planktonic S. aureus, 384-well, cutoff for positive-scoring molecules 3-fold increase, read-out: AK-based Prestwick Library Screening Results: S. aureus (increase in extracellular AK activity).
Where [23] appears, read: planktonic E. faecium, 384-well, cutoff for positive-scoring molecules 3-fold increase, read-out: AK-based Prestwick Library Screening Results: E. faecium (increase in extracellular AK activity).
[24] abbreviates: planktonic P. aeruginosa, 384-well, cutoff for positive-scoring molecules 3-fold increase, read-out: AK-based Prestwick Library Screening Results: P. aeruginosa (increase in extracellular AK activity).
The mark [25] stands for this setting: planktonic E. cloacae, 384-well, cutoff for positive-scoring molecules 3-fold increase, read-out: AK-based Prestwick Library Screening Results: E. cloacae (increase in extracellular AK activity).
Setting [26] is: planktonic A. baumannii, 384-well, cutoff for positive-scoring molecules 3-fold increase, read-out: AK-based Prestwick Library Screening Results: A. baumannii (increase in extracellular AK activity).
[27] abbreviates: planktonic E. coli, 384-well, cutoff for positive-scoring molecules 3-fold increase, read-out: AK-based Prestwick Library Screening Results: E. coli (increase in extracellular AK activity).
[28] abbreviates: planktonic K. pneumoniae, 384-well, cutoff for positive-scoring molecules 3-fold increase, read-out: AK-based Prestwick Library Screening Results: K. pneumoniae (increase in extracellular AK activity).

Turning to `CCCC1O[C@@H]2C[C@H]3[C@@H]4CCC5=CC(=O)C=C[C@]5(C)[C@H]4[C@@H](O)C[C@]3(C)[C@]2(C(=O)CO)O1` (stereo partly drawn) [Budesonide], the fold induction at 50 µM turned out to be 0.6 in assay [1] (setting [8]); 0.9 in assay [2] (setting [9]); 0.9 in assay [3] (setting [10]); 1.4 in assay [4] (setting [11]); 0.9 in assay [5] (setting [12]); 0.9 in assay [6] (setting [13]). Also, the fold induction at 50 µM in assay [7] (setting [14]) was 0.7.

`NC(=NCc1ccccc1)NC(=O)c1nc(Cl)c(N)nc1N` [Benzamil hydrochloride]: the fold induction at 50 µM in assay [1] (planktonic, cutoff for positive-scoring molecules 3-fold increase, read-out: AK-based Prestwick Library Screening Results, S. aureus (fold increase in extracellular AK activity)) is 0.7; in assay [2] (planktonic, cutoff for positive-scoring molecules 3-fold increase, read-out: AK-based Prestwick Library Screening Results, E. faecium (fold increase in extracellular AK activity)), 1.1; in assay [3] (planktonic, cutoff for positive-scoring molecules 3-fold increase, read-out: AK-based Prestwick Library Screening Results, P. aeruginosa (fold increase in extracellular AK activity)), 0.6; in assay [4] (planktonic, cutoff for positive-scoring molecules 3-fold increase, read-out: AK-based Prestwick Library Screening Results, E. cloacae (fold increase in extracellular AK activity)), 0.7; in assay [5] (planktonic, cutoff for positive-scoring molecules 3-fold increase, read-out: AK-based Prestwick Library Screening Results, A. baumannii (fold increase in extracellular AK activity)), 0.6; in assay [6] (planktonic, cutoff for positive-scoring molecules 3-fold increase, read-out: AK-based Prestwick Library Screening Results, E. coli (fold increase in extracellular AK activity)), 0.6. Also, in assay [7] (planktonic, cutoff for positive-scoring molecules 3-fold increase, read-out: AK-based Prestwick Library Screening Results, K. pneumoniae (fold increase in extracellular AK activity)), the fold induction at 50 µM worked out at 0.6.

For the compound `CN[C@@H]1[C@@H](O[C@H]2O[C@H](CO)[C@@H](N)[C@H](O)[C@H]2O)OC2C[C@@H](N)[C@@H](O[C@H]3[C@H](O)[C@@H](O)[C@H](N)C[C@@H]3N)OC2[C@@H]1O` (stereo partly drawn) [Apramycin], the fold induction at 50 µM in assay [1] (setting [15]) was 0.9; in assay [2] (setting [16]), 1; in assay [3] (setting [17]), 1.1; in assay [4] (setting [18]), 1.4; in assay [5] (setting [19]) it was 1; in assay [6] (setting [20]), 1.2. Besides, in assay [7] (setting [21]), the fold induction at 50 µM stood at 0.8.

As to `CCOC(=O)[N-]c1cn(N2CCOCC2)n[o+]1` [Molsidomine], the fold induction at 50 µM in assay [1] (planktonic, cutoff for positive 3-fold increase, read-out: AK-based Prestwick Library Screening Results, S. aureus (fold increase in extracellular AK activity)) is 0.9; in assay [2] (planktonic, cutoff for positive 3-fold increase, read-out: AK-based Prestwick Library Screening Results, E. faecium (fold increase in extracellular AK activity)) it was 0.9; in assay [3] (planktonic, cutoff for positive 3-fold increase, read-out: AK-based Prestwick Library Screening Results, P. aeruginosa (fold increase in extracellular AK activity)), 1.1; in assay [4] (planktonic, cutoff for positive 3-fold increase, read-out: AK-based Prestwick Library Screening Results, E. cloacae (fold increase in extracellular AK activity)) it was 1.5; in assay [5] (planktonic, cutoff for positive 3-fold increase, read-out: AK-based Prestwick Library Screening Results, A. baumannii (fold increase in extracellular AK activity)), 1.2; in assay [6] (planktonic, cutoff for positive 3-fold increase, read-out: AK-based Prestwick Library Screening Results, E. coli (fold increase in extracellular AK activity)), 1.4. In assay [7] (planktonic, cutoff for positive 3-fold increase, read-out: AK-based Prestwick Library Screening Results, K. pneumoniae (fold increase in extracellular AK activity)), the fold induction at 50 µM worked out at 1.

As for `CCC(=O)OCC(=O)[C@@]1(OC(=O)CC)[C@H](C)C[C@H]2[C@H]3[C@H]([C@@H](O)C[C@@]21C)[C@@]1(C)C=CC(=O)C=C1C[C@H]3Cl` [Alclometasone dipropionate], the fold induction at 50 µM in assay [1] ([…], read-out: AK-based Prestwick Library Screening Results, S. aureus (fold increase in extracellular AK activity)) turned out to be 1.1; in assay [2] ([…], read-out: AK-based Prestwick Library Screening Results, E. faecium (fold increase in extracellular AK activity)), 1; in assay [3] ([…], read-out: AK-based Prestwick Library Screening Results, P. aeruginosa (fold increase in extracellular AK activity)) it was 1; in assay [4] ([…], read-out: AK-based Prestwick Library Screening Results, E. cloacae (fold increase in extracellular AK activity)) it was 1.2; in assay [5] ([…], read-out: AK-based Prestwick Library Screening Results, A. baumannii (fold increase in extracellular AK activity)), 0.9; in assay [6] ([…], read-out: AK-based Prestwick Library Screening Results, E. coli (fold increase in extracellular AK activity)), 1.1. The fold induction at 50 µM in assay [7] ([…], read-out: AK-based Prestwick Library Screening Results, K. pneumoniae (fold increase in extracellular AK activity)) was 1.1.

Consider `C[C@@H](O)[C@H]1C(=O)N2C(C(=O)O)=C(SCCN=CN)C[C@H]12` [Imipenem], for which the fold induction at 50 µM in assay [1] (setting [8]) was determined as 2.5; in assay [2] (setting [9]) it was 0.9; in assay [3] (setting [10]), 1; in assay [4] (setting [11]), 2.4; in assay [5] (setting [12]), 1.2; in assay [6] (setting [13]), 12.1. The fold induction at 50 µM in assay [7] (setting [14]) was 1.7.

With `O=C(O)[C@]1(O)C[C@@H](O)[C@@H](O)[C@H](O)C1` [Quinic acid], the fold induction at 50 µM in assay [1] (setting [15]) is 1.2; in assay [2] (setting [16]), 1; in assay [3] (setting [17]), 1.1; in assay [4] (setting [18]) it was 1.2; in assay [5] (setting [19]) it was 1.4; in assay [6] (setting [20]), 1.2. In assay [7] (setting [21]), the fold induction at 50 µM stood at 1.3.

As for `CCN(CC)CCNC(=O)c1cc(Cl)c(N)cc1OC` [Metoclopramide monohydrochloride], the fold induction at 50 µM in assay [1] (setting [22]) stood at 0.9; in assay [2] (setting [23]), 1.2; in assay [3] (setting [24]), 1.1; in assay [4] (setting [25]), 1.6; in assay [5] (setting [26]) it was 1.2; in assay [6] (setting [27]), 1.3. The fold induction at 50 µM in assay [7] (setting [28]) turned out to be 0.9.

With `CCN(CC)CCOC(=O)C(c1ccccc1)c1ccccc1` [Adiphenine hydrochloride], the fold induction at 50 µM in assay [1] (setting [22]) amounted to 1.3; in assay [2] (setting [23]), 1; in assay [3] (setting [24]), 0.9; in assay [4] (setting [25]), 1.5; in assay [5] (setting [26]), 1.3; in assay [6] (setting [27]) it was 1.2. The fold induction at 50 µM in assay [7] (setting [28]) turned out to be 1.
